Structures can show the parent of a compound that is named as a salt.
Assays:
[1] = target: T1, r-SgAChE1 (Schizaphis graminum acetylcholinesterase-1) (Schizaphis graminum, UniProt Q9BMJ1); assay: Inhibitory kinetic constants; assay type: biochemical; details: for k2 (unimolecular rate constant) / ki / ki (bimolecular reaction constant, k2/Kd) / ki (bimolecular reaction constant): ATC substrate, room temperature
[2] = target: T1, r-SgAChE1 (Schizaphis graminum acetylcholinesterase-1); assay: Kinetics of substrate hydrolysis; assay type: biochemical; details: for KM of r-SgAChE1 relative to SgAChE purified from the greenbug / Vmax of r-SgAChE1 relative to SgAChE purified from the greenbug: comparison with ref 13; for Km: read-out: KM (Michaelis constant); for Km / Vmax (maximum velocity) / Vmax: room temperature; for Km / Vmax: pH 7.0; for kcat × 10^−3 (turnover rate): values × 10^−3, calculated from molecular mass 64,597 Da and Vmax
[3] = target: T1, r-SgAChE1 (Schizaphis graminum acetylcholinesterase-1); assay: Determination of IC50 for inhibition of purified r-SgAChE1; assay type: biochemical; details: room temperature
[4] = tested on: SgAChE purified from the greenbug; details: read-out: IC50 against SgAChE; native SgAChE; cited from earlier work
[5] = target: T1, r-SgAChE1 (Schizaphis graminum acetylcholinesterase-1); assay type: biochemical
[6] = tested on: SgAChE purified from the greenbug; details: read-out: KM toward SgAChE; native SgAChE; cited from earlier work

T1 sequence (Q9BMJ1 98-659): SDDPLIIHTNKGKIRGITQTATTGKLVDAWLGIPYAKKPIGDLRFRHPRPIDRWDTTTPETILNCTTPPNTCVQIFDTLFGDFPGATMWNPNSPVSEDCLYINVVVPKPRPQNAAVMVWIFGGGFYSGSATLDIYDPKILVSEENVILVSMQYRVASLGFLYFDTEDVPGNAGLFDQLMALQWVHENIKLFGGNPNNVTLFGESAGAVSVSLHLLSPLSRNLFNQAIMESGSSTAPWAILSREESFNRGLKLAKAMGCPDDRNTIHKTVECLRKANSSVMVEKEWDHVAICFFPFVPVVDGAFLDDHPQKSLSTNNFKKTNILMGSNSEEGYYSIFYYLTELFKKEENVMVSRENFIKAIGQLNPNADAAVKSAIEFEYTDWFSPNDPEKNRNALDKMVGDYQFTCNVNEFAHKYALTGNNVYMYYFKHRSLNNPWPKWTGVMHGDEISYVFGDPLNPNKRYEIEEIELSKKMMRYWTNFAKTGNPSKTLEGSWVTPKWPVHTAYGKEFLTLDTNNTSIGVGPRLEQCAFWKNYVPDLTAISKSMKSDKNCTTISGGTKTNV

## CCOP(=O)(OCC)Oc1ccc([N+](=O)[O-])cc1 [Paraoxon]
[1]
  k2 (unimolecular rate constant): 2.76 ± 0.25 min⁻¹
  ki: 15100 ± 383 M⁻¹ s⁻¹
  ki (bimolecular reaction constant, k2/Kd): 9.06 ± 0.23 ×10^−5 M^−1 min^−1
[1]; listed as paraoxon
  k2 (unimolecular rate constant): 2.76 min⁻¹

## CC(=O)SC(C)C[N+](C)(C)C.[I-] (stereo not drawn) [AβMTC, acetyl(β-methyl)thiocholine iodide]
[2]
  KM of r-SgAChE1 relative to SgAChE purified from the greenbug: 1.88 fold
  Vmax of r-SgAChE1 relative to SgAChE purified from the greenbug: 1.6 fold
  Km: 114 ± 12.5 µM
  Vmax (maximum velocity): 106.4 ± 3.0 U/mg
  Vmax: 106.4 ± 3.0 U/mg Protein
  kcat × 10^−3 (turnover rate): 6.88 ± 0.20 min^−1

## CCCC(=O)SCC[N+](C)(C)C.[I-] [BTC, S-butyrylthiocholine iodide]
[2]
  KM of r-SgAChE1 relative to SgAChE purified from the greenbug: 6.02 fold
  Vmax of r-SgAChE1 relative to SgAChE purified from the greenbug: 1.9 fold
  Km: 201 ± 21 µM
  Vmax (maximum velocity): 4.4 ± 0.1 U/mg
  Vmax: 4.4 ± 0.1 U/mg Protein

## CNC(=O)Oc1ccc2c(c1)[C@]1(C)CCN(C)[C@@H]1N2C.CNC(=O)Oc1ccc2c(c1)[C@]1(C)CCN(C)[C@@H]1N2C.O=S(=O)(O)O [Eserine, eserine hemisulfate]
[3]; 5 min incubation
  IC50: 199 ± 4 nM
[3]; 5 min incubation, listed as eserine
  IC50: 200 nM
[1]
  k2 (unimolecular rate constant): 1.58 ± 0.04 min⁻¹
  ki: 1670 ± 267 M⁻¹ s⁻¹
  ki (bimolecular reaction constant): 1.00 ± 0.16 × 10^5 M^−1 min^−1
  ki (bimolecular reaction constant, k2/Kd): 1.00 ± 0.16 ×10^−5 M^−1 min^−1
[1]; listed as eserine
  ki (bimolecular reaction constant): (1.00 ± 0.16) × 10^5 M^−1 min^−1
[4]
  IC50: 480 nM

## CC(=O)SCC[N+](C)(C)C.[I-] [ATC, Acetylthiocholine iodide]
[2]
  KM of r-SgAChE1 relative to SgAChE purified from the greenbug: 1.53 fold
  Vmax of r-SgAChE1 relative to SgAChE purified from the greenbug: 1.7 fold
  Km: 88.3 ± 9.6 µM
  Vmax (maximum velocity): 133.2 ± 1.6 U/mg
  Vmax: 133.2 ± 1.6 U/mg Protein
  kcat × 10^−3 (turnover rate): 8.60 ± 0.11 min^−1
[5]; substrate inhibition
  ATC concentration above which enzymatic activity is inhibited: above 10 mM

## CCOC(=O)CC(SP(=O)(OC)OC)C(=O)OCC (stereo not drawn) [Malaoxon, malaoxon]
[3]; IC50, 5 min incubation
  IC50: 61 nM
[1]
  Kd: 3400 ± 100 nM
  k2 (unimolecular rate constant): 1.59 ± 0.02 min⁻¹
  ki: 7830 ± 217 M⁻¹ s⁻¹
[1]; listed as malaoxon
  k2 (unimolecular rate constant): 1.59 min⁻¹

## CNC(=O)Oc1cccc2ccccc12 [Carbaryl, carbaryl]
[3]; IC50, 5 min incubation
  IC50: 940 ± 5 nM
[1]
  Kd: 15600 ± 2900 nM
  k2 (unimolecular rate constant): 0.99 ± 0.01 min⁻¹
  ki: 1080 ± 67 M⁻¹ s⁻¹

## C[N+](C)(C)CCO [choline, choline chloride]
[5]
  choline concentration above which the enzyme is inhibited: higher than 20 mM

## CCN(CC)C(C)CN1c2ccccc2Sc2ccccc21 (stereo not drawn) [Ethopropazine, ethopropazine hydrochloride]
[3]; IC50, 5 min incubation
  IC50: 102000 nM

## C=CC[N+](C)(C)c1ccc(CCC(=O)CCc2ccc([N+](C)(C)CC=C)cc2)cc1 [BW284C51, 1,5-bis(4-allyldimethylammoniumphenyl)-pentan-3-one dibromide]
[3]; 5 min incubation
  IC50: 1660 ± 2 nM
[4]
  IC50: 140 nM

## CC(=O)O [acetate]
[5]; range from 1 μM to 100 mM
  influence on hydrolytic activity: not much influenced

## CCC(=O)SCC[N+](C)(C)C.[I-] [PTC, propionylthio-choline iodide]
[2]
  KM of r-SgAChE1 relative to SgAChE purified from the greenbug: 2.20 fold
  Vmax of r-SgAChE1 relative to SgAChE purified from the greenbug: 2.0 fold
  Km: 68.9 ± 7.8 µM
  Vmax (maximum velocity): 76.7 ± 1.0 U/mg
  Vmax: 76.7 ± 1.0 U/mg Protein
  kcat × 10^−3 (turnover rate): 4.95 ± 0.07 min^−1
[6]
  Km: 31.3 ± 3.7 µM
